Laboratory results taken from patent US20260226025A1, “PHARMACEUTICALLY ACCEPTABLE SALT AND CRYSTAL FORM OF TRIAZOLE COMPOUND, AND PREPARATION METHOD THEREFOR” (JIANGSU HENGRUI PHARMACEUTICALS CO., LTD., priority 2023, published 2026).

Experiments:
Type in all cases: physicochemical
[1] = Influencing factor stability study (open containers; light, high temperature, high humidity); settings: for physical and chemical stability (conclusion): standing for 1 month, influencing factor conditions
Procedure: Samples of the free-state crystal forms A and B of the compound represented by formula I were spread in open containers and left to stand under light exposure (4500 Lux), high temperature (40° C. and 60° C.), and high humidity (RH 75% and RH 93%) conditions for 1 month to study their stability.
Samples of the crystal forms I and II of the sodium salt of the compound represented by formula I were spread in open containers and left to stand under light exposure (4500 Lux), high temperature (40° C. and 60° C.), and high humidity (RH 75%) conditions for 1 month to study their stability.

[2] = DVS (dynamic vapor sorption) hygroscopicity test
Procedure: The MS analyses were performed using an Agilent 1200/1290 DAD-6110/6120 Quadrupole MS liquid chromatography-mass spectrometry system (manufacturer: Agilent; MS model: 6110/6120 Quadrupole MS), waters ACQuity UPLC-QD/SQD (manufacturer: waters; MS model: waters ACQuity Qda Detector/waters SQ Detector), and THERMO Ultimate 3000-Q Exactive (manufacturer: THERMO; MS model: THERMO Q 15 Exactive). The HPLC analyses were performed using an Agilent 1260DAD high pressure liquid chromatograph (Sunfire C18 150×4.6 mm chromatography column) and a Thermo U3000 high pressure liquid chromatograph (Gimini C18 150× 4.6 mm chromatography column). XRPD refers to X-ray powder diffraction: The analysis was performed using a BRUKER D8 X-ray diffractometer; specific acquisition information: a Cu anode (40 kV, 40 mA), ray: monochromatic Cu-Ka ray (1=1.5418 Å). Scan mode: θ/2θ; scan range: 3-48°. DSC refers to differential scanning calorimetry: The analysis was performed using a METTLER TOLEDO DSC 3+ differential scanning calorimeter, with a temperature ramp rate of 10° C./min, specific temperature ranges shown in corresponding patterns (mostly 25° C.-300° C.), and a nitrogen purge speed of 50 mL/min. TGA refers to thermogravimetric analysis: The analysis was performed using a METTLER TOLEDO TGA 2 thermogravimetric analyzer, with a temperature ramp rate of 10° C./min, specific temperature ranges shown in corresponding patterns (mostly 30° C.-400° C.), and a nitrogen purge speed of 50 mL/min. DVS refers to dynamic vapor sorption: Surface Measurement Systems instrinsic was adopted; the humidity started at 50%, the humidity range of the investigation was 0%-95%, and the humidity was increased in increments of 10%; the criterion was as follows: each gradient mass change dM/dT≤0.002%; TMAX 360 min, two cycles.

[3] = Long-term/accelerated stability; settings: for physical and chemical stability (conclusion): long-term accelerated conditions for 6 months
[4] = accelerated experimental conditions, 70% RH
[5] = normal storage conditions, 25° C. and 60% RH
[6] = 25° C./60% RH, 1 month, listed as Free-state crystal form B
[7] = 25° C./60% RH, 2 months, listed as Free-state crystal form B
[8] = 25° C./60% RH, 3 months, listed as Free-state crystal form B
[9] = 25° C./60% RH, 6 months, listed as Free-state crystal form B
[10] = 40° C./75% RH, 1 month, listed as Free-state crystal form B
[11] = 40° C./75% RH, 2 months, listed as Free-state crystal form B
[12] = 40° C./75% RH, 3 months, listed as Free-state crystal form B
[13] = 40° C./75% RH, 6 months, listed as Free-state crystal form B
[14] = Initial, 0, listed as Free-state crystal form B
[15] = 25° C./60% RH, 1 month, listed as Free-state crystal form A
[16] = 25° C./60% RH, 2 months, listed as Free-state crystal form A
[17] = 25° C./60% RH, 3 months, listed as Free-state crystal form A
[18] = 25° C./60% RH, 6 months, listed as Free-state crystal form A
[19] = 40° C./75% RH, 1 month, listed as Free-state crystal form A
[20] = 40° C./75% RH, 2 months, listed as Free-state crystal form A
[21] = 40° C./75% RH, 3 months, listed as Free-state crystal form A
[22] = 40° C./75% RH, 6 months, listed as Free-state crystal form A
[23] = Initial, 0, listed as Free-state crystal form A

Compound: COCc1ccnc(OCc2c(-c3ccc(O[C@H]4C[C@@H]5CC[C@H](C(=O)O)[C@@H]5C4)c(C)n3)nnn2C)n1 [Crystal form B, (1S,3aS,5S,6aR)-5-((6-(5-(((4-(methoxymethyl)pyrimidin-2-yl)oxy)methyl)-1-methyl-1H-1,2,3-triazol-4-yl)-2-methylpyridin-3-yl)oxy) octahydropentalene-1-carboxylic acid]
- Crystal form ([1]; 40° C., 1 month): Crystal form B
- Purity % ([1]; 40° C., 1 month): 97.7%
- Crystal form ([1]; 40° C., 7 days): Crystal form B
- Purity % ([1]; 40° C., 7 days): 97.7%
- Crystal form ([1]; 40° C., 14 days): Crystal form B
- Purity % ([1]; 40° C., 14 days): 97.7%
- Crystal form ([1]; 60° C., 1 month): Crystal form B
- Purity % ([1]; 60° C., 1 month): 97.7%
- Crystal form ([1]; 60° C., 7 days): Crystal form B
- Purity % ([1]; 60° C., 7 days): 97.7%
- Crystal form ([1]; 60° C., 14 days): Crystal form B
- Purity % ([1]; 60° C., 14 days): 97.7%
- Crystal form ([1]; 75% RH, 1 month): Crystal form B
- Purity % ([1]; 75% RH, 1 month): 97.7%
- Crystal form ([1]; 75% RH, 7 days): Crystal form B
- Purity % ([1]; 75% RH, 7 days): 97.7%
- Crystal form ([1]; 75% RH, 14 days): Crystal form B
- Purity % ([1]; 75% RH, 14 days): 97.7%
- Crystal form ([1]; 93% RH, 1 month): Crystal form B
- Purity % ([1]; 93% RH, 1 month): 97.7%
- Crystal form ([1]; 93% RH, 7 days): Crystal form B
- Purity % ([1]; 93% RH, 7 days): 97.7%
- Crystal form ([1]; 93% RH, 14 days): Crystal form B
- Purity % ([1]; 93% RH, 14 days): 97.7%
- Crystal form ([1]; 4500 Lux, 1 month): Crystal form B
- Purity % ([1]; 4500 Lux, 1 month): 97.0%
- Crystal form ([1]; 4500 Lux, 7 days): Crystal form B
- Purity % ([1]; 4500 Lux, 7 days): 97.7%
- Crystal form ([1]; 4500 Lux, 14 days): Crystal form B
- Purity % ([1]; 4500 Lux, 14 days): 97.5%
- Crystal form ([1]; Initial, 0 days): Crystal form B
- Purity % ([1]; Initial, 0 days): 97.7%
- physical and chemical stability (conclusion) [1]: good physical and chemical stability
- hygroscopic weight gain [2, 4]: about 0.31%
- crystal form re-identified after the DVS test [2]: its crystal form did not change
- hygroscopic weight gain ([2]; extreme conditions, 90% RH): about 0.64%
- hygroscopic weight gain [2, 5]: about 0.25%
- Crystal form [3, 6]: Crystal form B
- Purity % [3, 6]: 97.7%
- Crystal form [3, 7]: Crystal form B
- Purity % [3, 7]: 97.7%
- Crystal form [3, 8]: Crystal form B
- Purity % [3, 8]: 97.7%
- Crystal form [3, 9]: Crystal form B
- Purity % [3, 9]: 97.7%
- Crystal form [3, 10]: Crystal form B
- Purity % [3, 10]: 97.7%
- Crystal form [3, 11]: Crystal form B
- Purity % [3, 11]: 97.7%
- Crystal form [3, 12]: Crystal form B
- Purity % [3, 12]: 97.7%
- Crystal form [3, 13]: Crystal form B
- Purity % [3, 13]: 97.7%
- Crystal form [3, 14]: Crystal form B
- Purity % [3, 14]: 97.7%
- physical and chemical stability (conclusion) [3]: good physical and chemical stability

Compound: COCc1ccnc(OCc2c(-c3ccc(O[C@H]4C[C@@H]5CC[C@H](C(=O)O)[C@@H]5C4)c(C)n3)nnn2C)n1 [Crystal form A, (1S,3aS,5S,6aR)-5-((6-(5-(((4-(methoxymethyl)pyrimidin-2-yl)oxy)methyl)-1-methyl-1H-1,2,3-triazol-4-yl)-2-methylpyridin-3-yl)oxy) octahydropentalene-1-carboxylic acid]
- Crystal form ([1]; 40° C., 1 month): Crystal form A
- Purity % ([1]; 40° C., 1 month): 98.6%
- Crystal form ([1]; 40° C., 7 days): Crystal form A
- Purity % ([1]; 40° C., 7 days): 98.6%
- Crystal form ([1]; 40° C., 14 days): Crystal form A
- Purity % ([1]; 40° C., 14 days): 98.6%
- Crystal form ([1]; 60° C., 1 month): Crystal form A
- Purity % ([1]; 60° C., 1 month): 98.6%
- Crystal form ([1]; 60° C., 7 days): Crystal form A
- Purity % ([1]; 60° C., 7 days): 98.6%
- Crystal form ([1]; 60° C., 14 days): Crystal form A
- Purity % ([1]; 60° C., 14 days): 98.6%
- Crystal form ([1]; 75% RH, 1 month): Crystal form A
- Purity % ([1]; 75% RH, 1 month): 98.6%
- Crystal form ([1]; 75% RH, 7 days): Crystal form A
- Purity % ([1]; 75% RH, 7 days): 98.6%
- Crystal form ([1]; 75% RH, 14 days): Crystal form A
- Purity % ([1]; 75% RH, 14 days): 98.6%
- Crystal form ([1]; 93% RH, 1 month): Crystal form A
- Purity % ([1]; 93% RH, 1 month): 98.6%
- Crystal form ([1]; 93% RH, 7 days): Crystal form A
- Purity % ([1]; 93% RH, 7 days): 98.6%
- Crystal form ([1]; 93% RH, 14 days): Crystal form A
- Purity % ([1]; 93% RH, 14 days): 98.6%
- Crystal form ([1]; 4500 Lux, 1 month): Crystal form A
- Purity % ([1]; 4500 Lux, 1 month): 97.0%
- Crystal form ([1]; 4500 Lux, 7 days): Crystal form A
- Purity % ([1]; 4500 Lux, 7 days): 98.3%
- Crystal form ([1]; 4500 Lux, 14 days): Crystal form A
- Purity % ([1]; 4500 Lux, 14 days): 98.1%
- Crystal form ([1]; Initial, 0 days): Crystal form A
- Purity % ([1]; Initial, 0 days): 98.6%
- physical and chemical stability (conclusion) [1]: good physical and chemical stability
- hygroscopic weight gain [2, 4]: about 0.20%
- crystal form re-identified after the DVS test [2]: its crystal form did not change
- hygroscopic weight gain ([2]; extreme conditions, 90% RH): about 0.37%
- hygroscopic weight gain [2, 5]: about 0.17%
- Crystal form [3, 15]: Crystal form A
- Purity % [3, 15]: 98.6%
- Crystal form [3, 16]: Crystal form A
- Purity % [3, 16]: 98.6%
- Crystal form [3, 17]: Crystal form A
- Purity % [3, 17]: 98.6%
- Crystal form [3, 18]: Crystal form A
- Purity % [3, 18]: 98.6%
- Crystal form [3, 19]: Crystal form A
- Purity % [3, 19]: 98.6%
- Crystal form [3, 20]: Crystal form A
- Purity % [3, 20]: 98.6%
- Crystal form [3, 21]: Crystal form A
- Purity % [3, 21]: 98.6%
- Crystal form [3, 22]: Crystal form A
- Purity % [3, 22]: 98.6%
- Crystal form [3, 23]: Crystal form A
- Purity % [3, 23]: 98.6%
- physical and chemical stability (conclusion) [3]: good physical and chemical stability
